Laboratory results reported in patent publication US8735622B2, “Histone demethylase inhibitors and methods for using the same” (The Regents of the University of Colorado, a body corporate, priority 2011, dated 2014).
Entries after “also recorded” stand apart in the source; their conditions may differ. Where two headings read alike, the source gives them in different places.

Columns and labels:
[1] = tested on: H3K4me3 and H3K9me3 levels in KYSE150 cells; experiment: Quantitative immunostaining assay of H3K4me3 and H3K9me3 in KYSE150 cells; format: cell-based, human; conditions: for EC50: Homo sapiens, KYSE-150, 48 hours, immunostaining image quantification
Description: (§1) To quantify the cellular activity of methylstat, a quantitative image-based assay was used. […] The cellular effects of methylstat were also cell type-specific.
(§2) For quantified immunostaining experiments, KYSE150 or MCF7 cells were seeded in a 96-well plate at 10,000 cells per well and incubated at 37° C. for 24 hours. The medium was replaced and methylstat in DMSO was added at the concentration as indicated. After incubation for another 48 hours, immunostaining procedure was performed as described above using anti-H3K9me3 or anti-H3K4me3 primary antibody. Fluorescent images of cells were acquired by a Nikon Eclipse 90i fluorescence microscope and analyzed using the Cell Scoring analysis module of MetaMorph 7.0 software.

HDACs = experiment: Histone deacetylases (HDACs) enzyme inhibition assay (Fluor de Lys); format: biochemical; conditions: in vitro
Description: The enzyme activity assay for HDAC was carried out using Fluor de Lys Fluorescent Assay System (BML-AK500, Enzo Life Sciences Inc, NY USA). The assay was performed as the manufactory guide in white 384-well plates. Time resolved fluorescence was measured on a Beckman Coulter DTX 880 plate reader with 250 ms delay, excitation at 360 nm, and emission at 530 nm.

[2] = tested on: histone methylation marks in KYSE150 cells; experiment: Western blotting of histone methylation marks in KYSE150 cells; format: cell-based, human; conditions: KYSE150 cells, 5, 10, 15 μM, 48 hours
Description: Next, the cellular effects of methylstat were evaluated on a variety of histone methylation marks in KYSE150 cells. DMOG and DFO were used as positive controls, since they are known cell-active inhibitors of iron (II)- and α-ketoglutarate-dependent dioxygenases.
(§3) Total lysates of cells were generated from the cells lysed in CelLytic M Cell Lysis (Sigma) with protease inhibitor cocktail (Sigma), mixed with 2×LSB buffer (100 mM Tris-HCl pH 6.8, 200 mM DTT, 4% SDS, 20% glycerol and 0.2% bromophenol blue) and boiled for 5 min before SDS-PAGE. BCA assay (Thermo) was applied for protein qualification.
Histone extraction was generated from the cells lysed in Triton Extraction Buffer (TEB: PBS containing 0.5% Triton X 100 (v/v), 2 mM phenylmethylsulfonyl fluoride (PMSF), 0.02% (w/v) NaN3) at the density of 10^7 cells/mL. 0.2 N HCl was used to extract histone over night at 4° C.

[3] = tested on: histone methylation marks in MCF7 cells; experiment: Western blotting of histone methylation marks in MCF7 cells; format: cell-based, human; conditions: MCF7 cells, 5, 10, 15 μM, 48 hours
[4] = tested on: H3K4me3 and H3K9me3 levels in MCF7 cells; experiment: Quantitative immunostaining assay of H3K4me3 and H3K9me3 in MCF7 cells; format: cell-based, human; conditions: for EC50: Homo sapiens, 48 hours, immunostaining image quantification
Description: as §1, §2

[5] = target: T1, human GASC1 (GST-GASC1(1-420)) (Homo sapiens, UniProt Q9H3R0); experiment: GASC1 enzyme activity assay (DELFIA); format: biochemical; conditions: in vitro
T1 construct: corresponding to amino acid 1-420 was cloned and purified; made in house; host or cells: Escherichia coli BL-21
T1 sequence (Q9H3R0 1-420): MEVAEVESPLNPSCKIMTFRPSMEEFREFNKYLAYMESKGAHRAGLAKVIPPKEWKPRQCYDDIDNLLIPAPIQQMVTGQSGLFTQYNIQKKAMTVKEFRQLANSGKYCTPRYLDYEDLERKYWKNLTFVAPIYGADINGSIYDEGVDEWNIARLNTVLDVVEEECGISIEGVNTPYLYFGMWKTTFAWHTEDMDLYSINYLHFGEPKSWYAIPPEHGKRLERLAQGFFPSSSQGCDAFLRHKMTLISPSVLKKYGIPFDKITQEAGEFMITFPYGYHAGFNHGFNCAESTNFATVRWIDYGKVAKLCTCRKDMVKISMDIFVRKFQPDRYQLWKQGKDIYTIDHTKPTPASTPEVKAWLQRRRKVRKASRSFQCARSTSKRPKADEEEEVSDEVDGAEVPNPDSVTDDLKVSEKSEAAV
Description: In order to evaluate the inhibitory activity of 1 in vitro, a GST-fusion protein of the catalytic N-terminus of human GASC1 (gene amplified in squamous cell carcinoma 1) corresponding to amino acid 1-420 was cloned and purified. […] To evaluate the enzyme specificity of 1, the activity of 1 was examined against several other related enzymes in vitro.
The enzyme activity assays for GASC1 and JMJD2A were established on the DELFIA platform. DELFIA assays were performed in white, opaque 384-well plates coated with Streptavidin (Perkin Elmer). GST-GASC1(1-420) was diluted to 200 ng/well in 20 mM Tris HCl pH 8.5/2 mM glutathione and added in a volume of 20 μL. Blank wells received Tris/glutathione buffer only. Test compounds were diluted in DMSO and […] was pinned into the wells. Blank and control wells received only compound buffer. The reactions were initiated by the addition of 500 nM biotin-H3(1-20)K9me3 substrate, 10 μM FeSO4, 100 μM alpha-ketoglutarate in a volume of 20 μL, and incubated at room temperature for 60 minutes. The plates were washed 3 times with 100 μL of Wash Buffer (50 mM Tris pH 7.4, 150 mM NaCl, 0.05% Tween 20, 0.2% BSA). […] Time resolved fluorescence was measured after 45 minutes on an Envision Microplate Imager (Perkin Elmer Life Sciences) with 400 μs delay, excitation at 360 nm, and emission at 620 nm.

[6] = tested on: prolyl hydroxylases (PHDs); experiment: Cellular HIF-1α level (prolyl hydroxylase specificity) in MCF7 cells; format: cell-based, human; conditions: 24 hours, methylstat up to 15 μM, DFO 150 μM, DMOG 1 and 2 mM
From the text: To assess the specificity of methylstat in vivo, another iron(II)- and α-ketoglutarate-dependent dioxygenases, prolyl hydroxylases (PHDs), was examined. PHDs have been reported to regulate normoxic inactivation of hypoxia-inducible factors (HIFs) by hydroxylating specific prolyl residues of HIFs. […] DMOG and DFO have been used to mimic hypoxia conditions by inhibiting PHDs in vivo. […] Similar results were also observed in HeLa cells (see FIG. 7).
as §3

COC(=O)/C=C/C(=O)N(O)CCCCNCc1ccc(COC(=O)Nc2cccc3ccccc23)cc1 [methylstat]
increase of the H3K9me3 mark [1]: 10.8 fold | EC50 ([1]; read-out: EC50 for H3K4me3): 10.3 µM | EC50 ([1]; read-out: EC50 for H3K9me3): 8.6 µM | inhibition of histone deacetylases (HDACs) (HDACs): did not significantly inhibit | hypermethylation of histone proteins (Western blot) [2]: induced hypermethylation of lysine residues; also recorded: induced hypermethylations of histone proteins in a concentration-dependent manner | hypermethylation of histone proteins (Western blot) [3]: induced concentration-dependent hypermethylation of lysine and arginine residues; also recorded: induced hypermethylations of histone proteins in a concentration-dependent manner | increase of the H3K9me3 mark [4]: 4.5 fold | EC50 ([4]; read-out: EC50 for H3K4me3): 6.7 µM | EC50 ([4]; read-out: EC50 for H3K9me3): 6.3 µM | inhibition of enzymatic activity of GASC1 [5]: did not significantly inhibit | cellular HIF-1α levels / prolyl hydroxylase inhibition [6]: did not affect the cellular HIF-1α levels; also recorded: did not significantly inhibit prolyl hydroxylases
